Laboratory results published in the OligoGym collection.
Values joined by “and” are separate entries in the source; they are usually repeats but may differ in a detail not shown here. Equal values may be shown once. HELM strings list units from the 5' end as sugar, base in round brackets, then linkage (d deoxyribose, r ribose, m 2'-O-methyl, p phosphodiester). Methylation of C is not given here. [moe] = 2'-O-(2-methoxyethyl) (MOE); [cEt] = constrained ethyl (cEt); [sp] = phosphorothioate linkage

Biological target: HBV
Settings: ASO

Row | Substance | target mRNA inhibition (HepG2, 0.07 µM) | also measured
1 | RNA1{[moe](C)[sp].[cEt](G)[sp].d(G)[sp].d(G)[sp].d(C)[sp].d(A)[sp].d(A)[sp].d(C)[sp].d(A)[sp].d(T)[sp].d(A)[sp].d(C)[sp].[cEt](C)[sp].[moe](T)[sp].[cEt](T)[sp].[moe](G)}$$$$V2.0 | 72% and 65% | 
2 | RNA1{[moe](C)[sp].[cEt](T)[sp].[cEt](G)[sp].d(A)[sp].d(A)[sp].d(C)[sp].d(A)[sp].d(A)[sp].d(A)[sp].d(T)[sp].d(G)[sp].d(G)[sp].d(C)[sp].[cEt](A)[sp].[cEt](C)[sp].[moe](T)}$$$$V2.0 | 69% and 58% | 
3 | RNA1{[moe](C)[sp].[cEt](T)[sp].d(A)[sp].d(G)[sp].d(T)[sp].d(A)[sp].d(A)[sp].d(A)[sp].d(C)[sp].d(T)[sp].d(G)[sp].d(A)[sp].[cEt](G)[sp].[moe](C)[sp].[cEt](C)[sp].[moe](A)}$$$$V2.0 | 74% and 76% | 
4 | RNA1{[moe](C)[sp].[moe](A)[sp].[moe](A)[sp].d(T)[sp].d(T)[sp].d(T)[sp].d(A)[sp].d(T)[sp].d(G)[sp].d(C)[sp].d(C)[sp].d(T)[sp].d(A)[sp].[cEt](C)[sp].[cEt](A)[sp].[cEt](G)}$$$$V2.0 | 30% and 20% | 
5 | RNA1{[moe](C)[sp].[moe](A)[sp].[moe](C)[sp].[moe](T)[sp].[moe](A)[sp].d(G)[sp].d(T)[sp].d(A)[sp].d(A)[sp].d(A)[sp].d(C)[sp].d(T)[sp].d(G)[sp].d(A)[sp].[moe](G)[sp].[moe](C)}$$$$V2.0 | 59% and 60% | 
6 | RNA1{[moe](C)[sp].[moe](A)[sp].[moe](C)[sp].d(T)[sp].d(A)[sp].d(G)[sp].d(T)[sp].d(A)[sp].d(A)[sp].d(A)[sp].d(C)[sp].d(T)[sp].[moe](G)[sp].[moe](A)[sp].[moe](G)[sp].[moe](C)}$$$$V2.0 | 14% and 4% | 
7 | RNA1{[moe](C)[sp].[moe](A)[sp].[moe](G)[sp].d(A)[sp].d(G)[sp].d(G)[sp].d(T)[sp].d(G)[sp].d(A)[sp].d(A)[sp].d(G)[sp].d(C)[sp].[moe](G)[sp].[moe](A)[sp].[moe](A)[sp].[moe](G)[sp].[moe](T)}$$$$V2.0 | 63% and 50% | 
8 | RNA1{[moe](C)[sp].[moe](C)[sp].[moe](A)[sp].[moe](A)[sp].[moe](T)[sp].[moe](T)[sp].d(T)[sp].d(A)[sp].d(T)[sp].d(G)[sp].d(C)[sp].d(C)[sp].d(T)[sp].d(A)[sp].d(C)[sp].[moe](A)[sp].[moe](G)}$$$$V2.0 | 13% and 20% | 
9 | RNA1{[moe](C)[sp].[moe](C)[sp].[moe](A)[sp].[moe](A)[sp].d(T)[sp].d(T)[sp].d(T)[sp].d(A)[sp].d(T)[sp].d(G)[sp].d(C)[sp].d(C)[sp].d(T)[sp].[moe](A)[sp].[moe](C)[sp].[moe](A)}$$$$V2.0 | 24% and 8% | 
10 | RNA1{[moe](C)[sp].[moe](C)[sp].[moe](A)[sp].d(A)[sp].d(T)[sp].d(T)[sp].d(T)[sp].d(A)[sp].d(T)[sp].d(G)[sp].d(C)[sp].d(C)[sp].[moe](T)[sp].[moe](A)[sp].[moe](C)[sp].[moe](A)[sp].[moe](G)}$$$$V2.0 | 53% and 32% | 
11 | RNA1{[moe](C)[sp].[moe](C)[sp].[moe](A)[sp].d(C)[sp].d(T)[sp].d(G)[sp].d(A)[sp].d(A)[sp].d(C)[sp].d(A)[sp].d(A)[sp].d(A)[sp].[moe](T)[sp].[moe](G)[sp].[moe](G)[sp].[moe](C)}$$$$V2.0 | 69% | 
12 | RNA1{[moe](C)[sp].[moe](C)[sp].[moe](G)[sp].d(C)[sp].d(A)[sp].d(G)[sp].d(T)[sp].d(A)[sp].d(T)[sp].d(G)[sp].d(G)[sp].d(A)[sp].[moe](T)[sp].[moe](C)[sp].[moe](G)[sp].[moe](G)[sp].[moe](C)}$$$$V2.0 | 86% and 73% | 
13 | RNA1{[moe](C)[sp].[moe](C)[sp].d(G)[sp].d(C)[sp].d(A)[sp].d(G)[sp].d(T)[sp].d(A)[sp].d(T)[sp].d(G)[sp].d(G)[sp].[moe](A)[sp].[moe](T)[sp].[moe](C)[sp].[moe](G)[sp].[moe](G)}$$$$V2.0 | 63% and 52% | 
14 | RNA1{[moe](C)[sp].[moe](G)[sp].[moe](A)[sp].[moe](A)[sp].[moe](C)[sp].d(C)[sp].d(A)[sp].d(C)[sp].d(T)[sp].d(G)[sp].d(A)[sp].d(A)[sp].d(C)[sp].d(A)[sp].[moe](A)[sp].[moe](A)[sp].[moe](T)}$$$$V2.0 | 34% and 32% | 
15 | RNA1{[moe](C)[sp].[moe](G)[sp].[moe](A)[sp].[moe](A)[sp].d(C)[sp].d(C)[sp].d(A)[sp].d(C)[sp].d(T)[sp].d(G)[sp].d(A)[sp].d(A)[sp].d(C)[sp].[moe](A)[sp].[moe](A)[sp].[moe](A)}$$$$V2.0 | 44% and 32% | 
16 | RNA1{[moe](C)[sp].[moe](G)[sp].[moe](C)[sp].[moe](A)[sp].d(G)[sp].d(T)[sp].d(A)[sp].d(T)[sp].d(G)[sp].d(G)[sp].d(A)[sp].d(T)[sp].d(C)[sp].[moe](G)[sp].[moe](G)[sp].[moe](C)[sp].[moe](A)}$$$$V2.0 | 81% and 67% | 

Row | Substance | target mRNA inhibition (HepG2, 0.07 µM) | also measured
17 | RNA1{[moe](C)[sp].[moe](G)[sp].[moe](C)[sp].[moe](A)[sp].d(G)[sp].d(T)[sp].d(A)[sp].d(T)[sp].d(G)[sp].d(G)[sp].d(A)[sp].d(T)[sp].d(C)[sp].[moe](G)[sp].[moe](G)[sp].[moe](C)}$$$$V2.0 | 80% and 68% | 
18 | RNA1{[moe](C)[sp].[moe](G)[sp].[moe](T)[sp].[moe](G)[sp].d(C)[sp].d(A)[sp].d(G)[sp].d(A)[sp].d(G)[sp].d(G)[sp].d(T)[sp].d(G)[sp].d(A)[sp].[moe](A)[sp].[moe](G)[sp].[moe](C)}$$$$V2.0 | 46% and 44% | 
19 | RNA1{[moe](C)[sp].[moe](G)[sp].[moe](T)[sp].d(G)[sp].d(C)[sp].d(A)[sp].d(G)[sp].d(A)[sp].d(G)[sp].d(G)[sp].d(T)[sp].d(G)[sp].[moe](A)[sp].[moe](A)[sp].[moe](G)[sp].[moe](C)[sp].[moe](G)}$$$$V2.0 | 70% and 64% | 
20 | RNA1{[moe](C)[sp].[moe](T)[sp].[moe](A)[sp].d(G)[sp].d(T)[sp].d(A)[sp].d(A)[sp].d(A)[sp].d(C)[sp].d(T)[sp].d(G)[sp].d(A)[sp].d(G)[sp].[cEt](C)[sp].[cEt](C)[sp].[cEt](A)}$$$$V2.0 | 71% and 79% | 
21 | RNA1{[moe](C)[sp].[moe](T)[sp].[moe](G)[sp].[moe](G)[sp].[moe](A)[sp].d(G)[sp].d(C)[sp].d(C)[sp].d(A)[sp].d(C)[sp].d(C)[sp].d(A)[sp].d(G)[sp].d(C)[sp].[moe](A)[sp].[moe](G)}$$$$V2.0 | 46% and 53% | 
22 | RNA1{[moe](C)[sp].[moe](T)[sp].[moe](G)[sp].[moe](G)[sp].d(A)[sp].d(G)[sp].d(C)[sp].d(C)[sp].d(A)[sp].d(C)[sp].d(C)[sp].d(A)[sp].d(G)[sp].[moe](C)[sp].[moe](A)[sp].[moe](G)[sp].[moe](G)}$$$$V2.0 | 79% and 76% | target mRNA inhibition (HepG2, 0.0092593 µM): 0%; target mRNA inhibition (HepG2, 0.0277778 µM): 24%; target mRNA inhibition (HepG2, 0.0833333 µM): 65%; target mRNA inhibition (HepG2, 0.25 µM): 79%
23 | RNA1{[moe](C)[sp].[moe](T)[sp].d(A)[sp].d(G)[sp].d(T)[sp].d(A)[sp].d(A)[sp].d(A)[sp].d(C)[sp].d(T)[sp].d(G)[sp].[moe](A)[sp].[moe](G)[sp].[moe](C)[sp].[moe](C)[sp].[moe](A)}$$$$V2.0 | 52% and 34% | 
24 | RNA1{[moe](C)[sp].[moe](T)[sp].d(G)[sp].d(G)[sp].d(A)[sp].d(G)[sp].d(C)[sp].d(C)[sp].d(A)[sp].d(C)[sp].d(C)[sp].[moe](A)[sp].[moe](G)[sp].[moe](C)[sp].[moe](A)[sp].[moe](G)}$$$$V2.0 | 57% and 53% | 
25 | RNA1{[moe](G)[sp].[cEt](A)[sp].[cEt](A)[sp].d(C)[sp].d(A)[sp].d(A)[sp].d(A)[sp].d(T)[sp].d(G)[sp].d(G)[sp].d(C)[sp].d(A)[sp].d(C)[sp].[cEt](T)[sp].[cEt](A)[sp].[moe](G)}$$$$V2.0 | 72% and 61% | 
26 | RNA1{[moe](G)[sp].[cEt](A)[sp].[cEt](A)[sp].d(C)[sp].d(T)[sp].d(G)[sp].d(G)[sp].d(A)[sp].d(G)[sp].d(C)[sp].d(C)[sp].d(A)[sp].d(C)[sp].[cEt](C)[sp].[cEt](A)[sp].[moe](G)}$$$$V2.0 | 65% and 51% | 
27 | RNA1{[moe](G)[sp].[cEt](A)[sp].[cEt](A)[sp].d(G)[sp].d(C)[sp].d(G)[sp].d(A)[sp].d(A)[sp].d(G)[sp].d(T)[sp].d(G)[sp].d(C)[sp].d(A)[sp].[cEt](C)[sp].[cEt](A)[sp].[moe](C)}$$$$V2.0 | 75% and 78% | 
28 | RNA1{[moe](G)[sp].[cEt](A)[sp].[cEt](T)[sp].d(G)[sp].d(A)[sp].d(G)[sp].d(G)[sp].d(C)[sp].d(A)[sp].d(T)[sp].d(A)[sp].d(G)[sp].d(C)[sp].[cEt](A)[sp].[cEt](G)[sp].[moe](C)}$$$$V2.0 | 60% and 59% | 
29 | RNA1{[moe](G)[sp].[cEt](A)[sp].d(G)[sp].d(G)[sp].d(T)[sp].d(G)[sp].d(A)[sp].d(A)[sp].d(G)[sp].d(C)[sp].d(G)[sp].d(A)[sp].[cEt](A)[sp].[moe](G)[sp].[cEt](T)[sp].[moe](G)}$$$$V2.0 | 75% and 82% | target mRNA inhibition (HepG2, 0.0092593 µM): 17%; target mRNA inhibition (HepG2, 0.0277778 µM): 40%; target mRNA inhibition (HepG2, 0.0833333 µM): 65%; target mRNA inhibition (HepG2, 0.25 µM): 79%
30 | RNA1{[moe](G)[sp].[cEt](A)[sp].d(G)[sp].d(T)[sp].d(T)[sp].d(C)[sp].d(C)[sp].d(G)[sp].d(C)[sp].d(A)[sp].d(G)[sp].d(T)[sp].[cEt](A)[sp].[moe](T)[sp].[cEt](G)[sp].[moe](G)}$$$$V2.0 | 75% and 68% | 
31 | RNA1{[moe](G)[sp].[cEt](C)[sp].[cEt](A)[sp].d(C)[sp].d(T)[sp].d(A)[sp].d(G)[sp].d(T)[sp].d(A)[sp].d(A)[sp].d(A)[sp].d(C)[sp].d(T)[sp].[cEt](G)[sp].[cEt](A)[sp].[moe](G)}$$$$V2.0 | 73% and 81% | target mRNA inhibition (HepG2, 0.0092593 µM): 8%; target mRNA inhibition (HepG2, 0.0277778 µM): 24%; target mRNA inhibition (HepG2, 0.0833333 µM): 65%; target mRNA inhibition (HepG2, 0.25 µM): 87%
